Source: US5420156A, “Pharmacologically active compound and use” (Burroughs Wellcome Co., priority 1989, dated 1995)

Legend:
[1] = system: monoamine oxidase (MAO); details: background; cited from earlier work
[2] = system: MAO-A; assay: In vitro inhibition of MAO-A in mitochondrial extracts of rat or human brain (double-label assay); format: biochemical
Experimental: (§1) MAO was assayed with [^3 H]serotonin (0.2 mM, 5G/mole) and [^14 C]β-phenethylamine (10 μM, 3 G/mole) as substrate in a double-label assay (White and Glassman, J. Neurochem, 29:987-97 (1977)). Under these conditions, serotonin is selectively metabolised by MAO-A and β-phenethylamine by MAO-B.

[3] = system: MAO-A; assay: Kinetic mechanism of MAO-A inhibition in vitro (substrate serotonin or tyramine varied); format: biochemical, rat or human
Experimental: as §1
For studies of the kinetic mechanism of inhibition, the above method was used except that a single substrate, serotonin or tyramine, was varied over a 10-fold concentration range that included the Km concentration. When tyramine was used as substrate, the extract was pretreated with deprenyl (1 μM) to inhibit all MAO-B activity. MAO-A activity was determined in the absence and presence of the compound under test at each substrate concentration in duplicate or triplicate assays.

[4] = system: MAO-A (brain); assay: In vivo inhibition of brain MAO-A (ex vivo assay after oral dosing); design: species or system male Sprague-Dawley rats; details: for Percentage inhibition of MAO-A, Brain: 3 hours after dosing; for inhibition of brain MAO-A by the time of tyramine administration: single oral dose, 3 hours later (tyramine pressor study)
Experimental: To determine MAO inhibition in brains and livers of rats pretreated with a reversible inhibitor, it was necessary to use an assay procedure that minimized dilution of the compound. Thus, high concentrations of tissue homogenates were incubated for very short periods of time. For brain assays, initial tissue was 3-fold diluted into each assay. […] Further dilution of liver homogenates was necessary in order to obtain reliable data. Substrate concentrations were not saturating, but were chosen relative to Km values for serotonin and β-phenethylamine in order to give an estimate of MAO-A and MAO-B, respectively. Brains from pretreated male Sprague-Dawley rats ([…]) were homogenized in a buffer consisting of 0.1 M potassium phosphate and 5% sucrose (pH 7.4) at a 1:1 tissue weight/buffer volume ratio, using a motorized Teflon/glass homogenizer. MAO-A and MAO-B were determined by incubating 100 μL of tissue homogenate with 50 μL of a double-label substrate mixture to give final concentrations of [^3 H]serotonin, 0.4 mM (5C/mole) and [^14 C]β-phenethylamine, 20 μM (3C/mole). For blank assays, 100 μL portions of homogeneous were pre-incubated for 15 min. at 37° C. with pargyline (4 mM) before substrate addition. Incubations with substrate present were at 37° C. for 30 sec. Assay mixtures were then acidified and products extracted as in the above in vitro method (White and Glassman, loc. cit.).

[5] = system: MAO-A (liver); assay: In vivo inhibition of liver MAO-A (ex vivo assay after oral dosing); design: species or system rats
Experimental: To determine MAO inhibition in brains and livers of rats pretreated with a reversible inhibitor, it was necessary to use an assay procedure that minimized dilution of the compound. Thus, high concentrations of tissue homogenates were incubated for very short periods of time. For brain assays, initial tissue was 3-fold diluted into each assay. […] Further dilution of liver homogenates was necessary in order to obtain reliable data. Substrate concentrations were not saturating, but were chosen relative to Km values for serotonin and β-phenethylamine in order to give an estimate of MAO-A and MAO-B, respectively. Brains from pretreated male Sprague-Dawley rats (sacrificed 3 hours after oral dosing with the test compound) were homogenized in a buffer consisting of 0.1 M potassium phosphate and 5% sucrose (pH 7.4) at a 1:1 tissue weight/buffer volume ratio, using a motorized Teflon/glass homogenizer. MAO-A and MAO-B were determined by incubating 100 μL of tissue homogenate with 50 μL of a double-label substrate mixture to give final concentrations of [^3 H]serotonin, 0.4 mM (5C/mole) and [^14 C]β-phenethylamine, 20 μM (3C/mole). For blank assays, 100 μL portions of homogeneous were pre-incubated for 15 min. at 37° C. with pargyline (4 mM) before substrate addition. Incubations with substrate present were at 37° C. for 30 sec. Assay mixtures were then acidified and products extracted as in the above in vitro method (White and Glassman, loc. cit.).
Liver tissue was homogenized in the above phosphate-sucrose buffer at a 1:5 tissue weight/buffer volume ratio. Portions (100 μL) of homogenate were incubated with 50 μL of the above double-label substrate mixture. Blank assays included the same volume of homogenate pre-incubated with 4 mM pargyline for 15 min. at 37° C. After addition of substrates, mixtures were incubated at 37° C. for 30 sec, acidified, and products extracted as above.

[6] = system: MAO-B (brain); assay: In vivo inhibition of brain MAO-B (ex vivo assay after oral dosing); design: species or system male Sprague-Dawley rats; details: 5, 10, 20 mg/kg p.o.
Experimental: (§2) To determine MAO inhibition in brains and livers of rats pretreated with a reversible inhibitor, it was necessary to use an assay procedure that minimized dilution of the compound. Thus, high concentrations of tissue homogenates were incubated for very short periods of time. For brain assays, initial tissue was 3-fold diluted into each assay. Because of the very high MAO activity. Further dilution of liver homogenates was necessary in order to obtain reliable data. Substrate concentrations were not saturating, but were chosen relative to Km values for serotonin and β-phenethylamine in order to give an estimate of MAO-A and MAO-B, respectively. Brains from pretreated male Sprague-Dawley rats (sacrificed 3 hours after oral dosing with the test compound) were homogenized in a buffer consisting of 0.1 M potassium phosphate and 5% sucrose (pH 7.4) at a 1:1 tissue weight/buffer volume ratio, using a motorized Teflon/glass homogenizer. MAO-A and MAO-B were determined by incubating 100 μL of tissue homogenate with 50 μL of a double-label substrate mixture to give final concentrations of [^3 H]serotonin, 0.4 mM (5C/mole) and [^14 C]β-phenethylamine, 20 μM (3C/mole). For blank assays, 100 μL portions of homogeneous were pre-incubated for 15 min. at 37° C. with pargyline (4 mM) before substrate addition. Incubations with substrate present were at 37° C. for 30 sec. […]

[7] = system: MAO-B (liver); assay: In vivo inhibition of liver MAO-B (ex vivo assay after oral dosing); design: species or system rats; details: 5, 10, 20 mg/kg p.o.
Experimental: as §2

[8] = Acute oral toxicity, mice; format: in vivo; details: up to 1000 mg/kg., p.o.
[9] = Acute oral toxicity, rats; format: in vivo; details: up to 1000 mg/kg., p.o.
[10] = system: MAO-A; assay: Reversibility of binding to MAO-A by dialysis
[11] = system: elevation of blood pressure by orally ingested tyramine; assay: Response to orally ingested tyramine (elevation of blood pressure) in test mammals; format: in vivo; details: oral antidepressant doses prior to orally ingested tyramine

For N[C@@H]1C[C@H]1c1ccccc1 (relative stereo) [tranylcypromine], the “type of MAO inhibition” value [1] is listed as “non-selective, irreversible inhibitors”.
For CCc1cccc2c1S(=O)(=O)c1ccccc1O2 [Compound I, 1-Ethylphenoxathiin 10,10-dioxide], the “inhibition of MAO-A (in words)” value [2] was “potent selective inhibition of MAO-A”, the IC50 ([2]; read-out: I50 (concentration producing 50% inhibition)) was 35 nM and the “type of inhibition vs. the substrate serotonin or tyramine” value ([3]; substrate serotonin or tyramine) was “competitive”. For the same compound, the Ki ([3]; vs. substrate serotonin) was 10 nM, the Ki ([3]; vs. substrate tyramine, extract pretreated with deprenyl (1 μM)) was 10 nM and the “Percentage inhibition of MAO-A, Brain” value ([4]; 5 mg/kg p.o.) was 18.5 ± 8.1%. For the same compound, the “Percentage inhibition of MAO-A, Brain” value ([4]; 10 mg/kg p.o.) was 65.2 ± 6.6%, the “Percentage inhibition of MAO-A, Brain” value ([4]; 20 mg/kg p.o.) was 82.4 ± 2.6% and the “time of peak inhibition of brain MAO-A” value ([4]; oral dose of 20 mg/kg) was 1 to 6 h. For the same compound, the “inhibition of brain MAO-A at 24 hours after dosing” value ([4]; oral dose of 20 mg/kg, 24 hours) was “negligible”, the “inhibition of brain MAO-A by the time of tyramine administration” value [4] was “approximately 80%” and the “Percentage inhibition of MAO-A, Liver” value ([5]; 5 mg/kg p.o.) was 32.8 ± 6.4%. For the same compound, the “Percentage inhibition of MAO-A, Liver” value ([5]; 10 mg/kg p.o.) was 61.8 ± 4.4%, the “Percentage inhibition of MAO-A, Liver” value ([5]; 20 mg/kg p.o.) was 78.9 ± 1.6% and the “inhibition of MAO-B, brain” value [6] was “no significant inhibition”. The “inhibition of MAO-B, liver” value [7] was “no significant inhibition”, the “visible effects after acute doses” value [8] was “No visible effects” and the “visible effects after acute doses” value [9] was “No visible effects”. The “binding to MAO-A, removal from its complex by dialysis” value [10] was “reversibly bound to MAO-A” and the “increase in response (elevation of blood pressure) to orally ingested tyramine” value [11] was “No pharmacologically significant increase in response”.
In the case of Cc1cc(C(=O)NNCc2ccccc2)no1 [isocarboxazid], the “type of MAO inhibition” value [1] is given as “non-selective, irreversible inhibitors”.
In the case of NNCCc1ccccc1 [pheneizine, reference compound], the “inhibition of brain MAO-A by the time of tyramine administration” value [4] is given as “approximately 80%”, the “inhibition of liver MAO-A in tyramine pressor study” value ([5]; single oral dose producing approximately 80% inhibition of brain MAO-A) is given as at least 90% and the “type of MAO inhibition” value [1] is given as “non-selective, irreversible inhibitors”.
